Here are results for 27 compounds from ChEMBL document CHEMBL4152252, “Fluorine walk: The impact of fluorine in quinolone amides on their activity against African sleeping sickness” (Eur J Med Chem, 2018).

≈ marks a conversion by molar mass, not a printed value.

Data set [1] is described as follows: Drug level in rat liver microsomes assessed as CYP450-mediated metabolite formation treated with 1-Butyl-6-fluoro-N-(4-fluorobenzyl)-7-morpholino-4-oxo-1,4-dihydroquinoline-3-carboxamide at 100 uM using NADPH/H+ as co-factor after 30 to 90 mins by LC/MSD iom trap method. It counts as ADME. For orientation: Microsomes from liver hold many membrane-bound enzymes, among them those of drug oxidation.

The nature of data set [2]: Drug level in rat liver cytosol assessed as CYP450-mediated metabolite formation treated with 1-Butyl-6-fluoro-N-(4-fluorobenzyl)-7-morpholino-4-oxo-1,4-dihydroquinoline-3-carboxamide at 100 uM using NADPH/H+ as co-factor after 30 to 90 mins by LC/MSD iom trap method. It counts as ADME, subcellular.
Data set [3] in a line: Drug level in rat liver microsomes assessed as CYP450-mediated metabolite formation treated with N-benzyl-1-butyl-5-fluoro-7-morpholino-4-oxo-1,4-dihydroquinoline-3-carboxamide at 100 uM using NADPH/H+ as co-factor after 30 to 90 mins by LC/MSD iom trap method. It counts as ADME.
Data set [4] is described as follows: Drug level in rat liver cytosol assessed as CYP450-mediated metabolite formation treated with N-benzyl-1-butyl-5-fluoro-7-morpholino-4-oxo-1,4-dihydroquinoline-3-carboxamide at 100 uM using NADPH/H+ as co-factor after 30 to 90 mins by LC/MSD iom trap method. It counts as ADME, subcellular.
The subject of data set [5] is Trypanosoma brucei brucei. The experiment in a line: Antitrypanosomal activity against trypomastigote forms of Trypanosoma brucei brucei TC 221 assessed as parasite growth inhibition after 48 hrs by Alamar blue assay. It counts as functional, organism-based. The settings on record: TC 221, 48 h. (Alamar Blue is a resazurin reagent that responds to reducing activity.)

Data set [6] has as its system Trypanosoma brucei brucei. In words: Antitrypanosomal activity against trypomastigote forms of Trypanosoma brucei brucei TC 221 assessed as parasite growth inhibition after 72 hrs by Alamar blue assay. It counts as functional, organism-based. The settings on record: TC 221, 72 h.
Data set [7] is described as follows: Cytotoxicity against mouse J774.1 cells after 24 hrs by Alamar blue assay. The class given is cell-based.
Data set [8] can be described thus: Selectivity index, ratio of CC50 for mouse J774.1 cells to IC50 for trypomastigote forms of Trypanosoma brucei brucei TC 221 assessed as parasite growth inhibition after 48 hrs. It counts as toxicity. Conditions: read-out: Ratio CC50/IC50; call rule not given here.
Data set [9] is described as follows: Octanol/water partition co-efficient, log P of the compound by HPLC based method. It counts as physicochemical.
Data set [10] is described as follows: Thermodynamic equilibrium solubility of the compound in pH 7.4 phosphate buffered saline after 24 hrs by shake flask method. The class given is physicochemical. Conditions: read-out: Therm_solubility.
Data set [11] is described as follows: Half life in rat liver cytosol. It counts as ADME, subcellular.
Data set [12] can be described thus: Stability in rat liver cytosol assessed as compound turnover per mg protein. The class given is ADME, subcellular.
Data set [13] in a line: Drug level in rat liver microsomes assessed as CYP450-mediated metabolite formation treated with 1-Butyl-5-fluoro-N-(4-fluorobenzyl)-7-morpholino-4-oxo-1,4-dihydroquinoline-3-carboxamide at 100 uM using NADPH/H+ as co-factor after 30 to 90 mins by LC/MSD iom trap method. The class given is ADME.
Data set [14] in a line: Drug level in rat liver cytosol assessed as CYP450-mediated metabolite formation treated with 1-Butyl-5-fluoro-N-(4-fluorobenzyl)-7-morpholino-4-oxo-1,4-dihydroquinoline-3-carboxamide at 100 uM using NADPH/H+ as co-factor after 30 to 90 mins by LC/MSD iom trap method. The class given is ADME, subcellular.
Data set [15] in a line: Solubility of the compound in RPMI-1640 medium. It counts as physicochemical.
A short description of data set [16]: Drug uptake in brain of B6/J mouse at 19.3 +/- 2.3 MBq, iv after 60 mins by autoradiography. The class given is ADME, organism-based. The settings on record: in vivo, 1 h.

Regarding `CC(O)CCn1cc(C(=O)NCc2ccc(F)cc2)c(=O)c2cc(F)c(N3CCOCC3)cc21` (stereo not given), the Drug metabolism result in [1] and in data set [2] was “Metabolite_Detected” throughout.

Turning to `Cn1cc(C(N)=O)c(=O)c2c(F)cc(N3CCOCC3)cc21`, the Drug metabolism result in [3] and in data set [4] was “Metabolite_Detected” each time.

In the case of `CCCCn1cc(C(=O)NCc2ccccc2)c(=O)c2cc(OC)c(N3CCOCC3)cc21`, the figures for the IC50 in data set [5] and in [6] were 310 nM and 240 nM, respectively. For the same compound, the CC50 at 24 h in [7] was determined as 42000 nM. The selectivity ratio at 48 h in [8] turned out to be 135. In data set [9], this compound yielded a logP of 3.73. In addition, in data set [10], the solubility thermodynamic at 24 h is 2.73 µg/mL (≈ 6.07 µM).

As to `Cn1cc(C(=O)NCc2ccc(F)cc2)c(=O)c2cc(F)c(N3CCOCC3)cc21`, the Drug metabolism entry in data set [1] and in data set [2] was “Metabolite_Detected” each time.

In turn, `CCCCn1cc(C(=O)NCc2ccccc2)c(=O)c2cc(F)c(N3CCOCC3)cc21` had a half-life in data set [11] of 5.8 h. The Drug metabolism in [12] is given as 47.11 pmol/min/mg protein. Moreover, the solubility thermodynamic at 24 h in data set [10] is 0.005 µg/mL (≈ 0.0114 µM).

For `CC(O)CCn1cc(C(=O)NCc2ccccc2)c(=O)c2c(F)cc(N3CCOCC3)cc21` (stereo not given), the Drug metabolism result in data set [3] and in [4] was “Metabolite_Detected” throughout.

For the compound `O=C(NCc1ccccc1)c1cn(CCCO)c2cc(N3CCOCC3)c(F)cc2c1=O`, the IC50 stood at 270 nM in data set [5] and 550 nM in data set [6]. Also, the CC50 at 24 h in [7] was determined as 43100 nM. For the same compound, the selectivity ratio at 48 h in data set [8] was determined as 160. Besides, the logP in data set [9] worked out at 3.04. For the same compound, in data set [10], the solubility thermodynamic at 24 h was 18.7 µg/mL (≈ 42.5 µM).

Turning to `CCCCn1cc(C(=O)NCc2ccccc2)c(=O)c2c(OC)cc(N3CCOCC3)cc21`, the results for the 50% inhibitory concentration (IC50) in [5] and in data set [6] were 760 nM and 650 nM, respectively. The cytotoxic concentration (CC50) at 24 h in data set [7] was 51800 nM. For the same compound, the selectivity ratio at 48 h in data set [8] was found to be 68.

`O=C(NCc1ccc(F)cc1)c1c[nH]c2cc(N3CCOCC3)cc(F)c2c1=O`: the Drug metabolism result in data set [13] and in [14] was “Metabolite_Detected” each time.

`CCn1cc(C(=O)NCc2ccc(F)cc2)c(=O)c2c(F)cc(N3CCOCC3)cc21`: the Drug metabolism entry in data set [13] and in [14] was “Metabolite_Detected” each time.

Regarding `CCCCn1cc(C(=O)O)c(=O)c2cc(F)c(N3CCOCC3)cc21`, the Drug metabolism result in data set [1] and in data set [2] was “Metabolite_Detected” each time.

In the case of `O=C(NCc1ccccc1)c1cn(CCCOCc2ccccc2)c2cc(N3CCOCC3)c(F)cc2c1=O`, the CC50 at 24 h in [7] was > 100000 nM. In data set [9], the logP was 3.9.

In the case of `CCCCn1cc(C(=O)NCc2ccccc2)c(=O)c2cc(F)c(N3CCOCC3)c(F)c21`, the IC50 was found to be 60 nM in [5] and 200 nM in data set [6]. For the same compound, in [7], the CC50 at 24 h was > 20000 nM. In data set [8], the selectivity ratio at 48 h was > 333. Moreover, the logP in data set [9] worked out at 4.57. The solubility entry in data set [15] is “Insoluble”.

As to `CCn1cc(C(=O)NCc2ccccc2)c(=O)c2c(F)cc(N3CCOCC3)cc21`, the Drug metabolism result in data set [3] and in [4] was “Metabolite_Detected” throughout.

With `Cn1cc(C(=O)NCc2ccc(F)cc2)c(=O)c2c(F)cc(N3CCOCC3)cc21`, the Drug metabolism result in data set [13] and in data set [14] was “Metabolite_Detected” in each case.

Regarding `CCCCn1cc(C(=O)NCc2ccc(F)cc2F)c(=O)c2cc(F)c(N3CCOCC3)cc21`, the IC50 in data set [5] and in data set [6] was 30 nM throughout. For the same compound, the CC50 at 24 h in [7] is 59600 nM. In addition, the selectivity ratio at 48 h in data set [8] turned out to be 1990. Further, in data set [12], the Drug metabolism is 5.94 pmol/min/mg protein.

On to `O=C(NCc1ccc(F)cc1)c1c[nH]c2cc(N3CCOCC3)c(F)cc2c1=O`, for which the Drug metabolism entry in data set [1] and in data set [2] was “Metabolite_Detected” throughout.

Consider `CCCCn1cc(C(N)=O)c(=O)c2c(F)cc(N3CCOCC3)cc21`, for which the Drug metabolism entry in data set [3] and in [4] was “Metabolite_Detected” each time.

`CCCCn1cc(C(=O)NCc2ccccc2)c(=O)c2ccc(N3CCOCC3)cc21`: the IC50 in [5] was found to be 230 nM; in data set [6] it was 200 nM. In data set [7], the CC50 at 24 h is > 100000 nM. Moreover, the selectivity ratio at 48 h in data set [8] was > 435. This compound showed a logP in data set [9] of 3.51. For the same compound, in data set [10], the solubility thermodynamic at 24 h was determined as 1.36 µg/mL (≈ 3.24 µM).

For the compound `CCCCn1cc(C(=O)NCc2ccccc2)c(=O)c2cc(C(F)(F)F)c(N3CCOCC3)cc21`, the IC50 in data set [5] was determined as 540 nM; in data set [6] it was 590 nM. The compound further had a CC50 at 24 h in [7] of 78600 nM. In data set [8], the selectivity ratio at 48 h was determined as 146. Besides, in data set [9], the logP worked out at 4.18.

For the compound `CCCCn1cc(C(=O)O)c(=O)c2c(F)cc(N3CCOCC3)cc21`, the Drug metabolism entry in data set [13] and in data set [14] was “Metabolite_Detected” throughout.

For the compound `O=C(NCc1ccccc1)c1cn(CCC[18F])c2cc(N3CCOCC3)c(F)cc2c1=O`, in data set [16], the Drug uptake result is “Active”.

For the compound `CCCCn1cc(C(=O)NCc2ccccc2F)c(=O)c2cc(F)c(N3CCOCC3)cc21`, the values for the IC50 in data set [5] and in data set [6] were 410 nM and 460 nM, respectively. The same compound had a CC50 at 24 h in data set [7] of 37000 nM. Moreover, the selectivity ratio at 48 h in [8] was 90.

As for `CCCCn1cc(C(=O)NCc2ccccc2)c(=O)c2c(F)c(F)c(N3CCOCC3)cc21`, the figures for the IC50 in [5] and in data set [6] were 40 nM and 30 nM, respectively. The CC50 at 24 h in data set [7] was > 25000 nM. Besides, in data set [8], the selectivity ratio at 48 h is > 625. The compound further displayed a logP in data set [9] of 3.97. Besides, the solubility entry in data set [15] is “Insoluble”.

Turning to `CCCCn1cc(C(=O)NCc2ccccc2)c(=O)c2c(N(C)C)cc(N3CCOCC3)cc21`, the results for the IC50 in data set [5] and in data set [6] were 1850 nM and 4800 nM, respectively. Besides, the CC50 at 24 h in data set [7] came out at 44000 nM. In [8], the selectivity ratio at 48 h amounted to 24.

Consider `O=C(NCc1ccccc1)c1cn(CCCF)c2cc(N3CCOCC3)c(F)cc2c1=O`, for which the half-maximal inhibitory concentration (IC50) in data set [5] was determined as 120 nM; in data set [6], 170 nM. In data set [7], this compound gave a CC50 at 24 h of 42400 nM. Besides, the selectivity ratio at 48 h in data set [8] worked out at 353. Moreover, the logP in [9] stood at 3.34. Further, the solubility thermodynamic at 24 h in data set [10] amounted to 1.41 µg/mL (≈ 3.19 µM).

For `CCCCn1cc(C(=O)NCc2ccccc2)c(=O)c2ccc(N3CCOCC3)c(F)c21`, the IC50 in [5] was 790 nM; in data set [6], 860 nM. Besides, the cytotoxic concentration (CC50) at 24 h in data set [7] was > 25000 nM. The selectivity ratio at 48 h in [8] was > 32. The log partition coefficient (logP) in [9] amounted to 4.09. Further, the solubility thermodynamic at 24 h in data set [10] was determined as 0.23 µg/mL (≈ 0.526 µM). For the same compound, in data set [15], the solubility entry is given as “Insoluble”.

The IC50 is the concentration that inhibits the measured activity by half. What is called CC50 is the concentration giving 50% cytotoxicity. Broadly, the logP is the decadic logarithm of the partition coefficient of the neutral form, usually between octanol and water. Usually half-life stands for how long it takes for the measured level to halve. Low readings indicate rapid decline, high ones slow decline.
